Laboratory results reported in US20180015051A1, “MODULATORS OF ALPHA-DICARBONYL DETOXIFICATION AND THEIR USE FOR THE TREATMENT OF DIABETIC PATHOLOGIES” (Buck Institute for Research on Aging, priority 2016, published 2018).

What was measured:
TRPA1 (worm) = biological target: T1, TRPA1 (worm) (Caenorhabditis elegans, UniProt Q18297); assay: Calcium imaging of HEK293T cells (Rhod-3 AM), worm TRPA1; format: cell-based, C. elegans; conditions: HEK293 cells transfected with worm TRPA1 and GFP; 100 pM AITC
T1 construct: expressed in transfected cells; host or cells: HEK293T
T1 sequence (Q18297 1-1211): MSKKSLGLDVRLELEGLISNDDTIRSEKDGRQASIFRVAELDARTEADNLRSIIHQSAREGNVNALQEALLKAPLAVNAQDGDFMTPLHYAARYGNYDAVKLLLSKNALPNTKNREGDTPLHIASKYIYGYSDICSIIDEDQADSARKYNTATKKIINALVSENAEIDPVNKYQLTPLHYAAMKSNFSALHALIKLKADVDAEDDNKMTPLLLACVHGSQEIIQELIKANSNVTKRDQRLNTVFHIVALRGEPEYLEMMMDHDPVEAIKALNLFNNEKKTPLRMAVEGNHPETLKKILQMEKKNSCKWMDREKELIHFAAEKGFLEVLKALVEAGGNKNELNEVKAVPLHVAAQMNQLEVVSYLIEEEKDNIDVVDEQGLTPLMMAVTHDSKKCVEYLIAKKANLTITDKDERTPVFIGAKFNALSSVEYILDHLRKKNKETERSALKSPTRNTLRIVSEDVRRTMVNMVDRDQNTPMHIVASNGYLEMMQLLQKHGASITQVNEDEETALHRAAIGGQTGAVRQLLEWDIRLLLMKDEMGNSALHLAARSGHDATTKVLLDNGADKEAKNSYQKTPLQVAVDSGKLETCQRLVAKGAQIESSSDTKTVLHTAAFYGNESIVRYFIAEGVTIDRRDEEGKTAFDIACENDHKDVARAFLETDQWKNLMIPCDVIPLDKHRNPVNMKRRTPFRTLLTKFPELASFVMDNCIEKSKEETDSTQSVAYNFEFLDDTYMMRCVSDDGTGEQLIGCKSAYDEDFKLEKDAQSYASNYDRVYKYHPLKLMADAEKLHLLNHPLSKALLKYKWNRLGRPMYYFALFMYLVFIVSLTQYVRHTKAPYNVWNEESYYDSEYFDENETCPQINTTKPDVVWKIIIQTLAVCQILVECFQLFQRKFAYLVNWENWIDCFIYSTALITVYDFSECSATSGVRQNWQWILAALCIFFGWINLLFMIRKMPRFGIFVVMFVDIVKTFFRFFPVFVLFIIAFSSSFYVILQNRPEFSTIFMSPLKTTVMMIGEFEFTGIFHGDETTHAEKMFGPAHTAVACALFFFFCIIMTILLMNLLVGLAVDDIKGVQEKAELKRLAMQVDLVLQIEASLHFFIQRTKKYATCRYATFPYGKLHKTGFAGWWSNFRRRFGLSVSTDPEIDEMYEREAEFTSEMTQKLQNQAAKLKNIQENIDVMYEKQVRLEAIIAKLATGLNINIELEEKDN
Description: (§1) Appropriate HEK293T-derived cells were seeded on collagen-coated glass bottom culture dishes (MatTek Corporation). Cells were loaded with 10 pM of Rhod-3 AM (Life Technology) for 30 min at 37° C. After 30 min they were washed twice with standard Tyrode's solution (135 mM NaCl, 4 mM KCl, 10 mM glucose, 10 mM HEPES, 2 mM CaCl2, and 1 mM MgCl2 at pH=7.4) at room temperature. Calcium imaging was performed on an Olympus BX51WI Axiovert microscope under a 60× objective. Fluorescent images were documented upon sequential excitation with 555 nm followed by 484 nm with a Roper CoolSnap CCD camera. After establishing a baseline 555/484 ratio, methylglyoxal or other agonists were diluted with Tyrode's solution (100 pM or 1 mM final concentration) and were perfused into cells. Images were processed with the MetaFlour (Olympus) software.

TRPA1 (RAT) = biological target: T2, TRPA1 (RAT) (Rattus norvegicus, UniProt Q6RI86); conditions: stated as known; cited from earlier work
T2 construct: expressed in transfected cells; host or cells: HEK293T

C. elegans [1] = assay: Lifespan assay (survival curves); format: in vivo, Caenorhabditis elegans; conditions: glod-4 mutant animals; PA, LA, or UMP (20 pM) vs EtOH control
Description: Life span assays were performed in Thermo Scientific Precision incubators at 20° C. After alkaline hypochlorite treatment, synchronized L1 animals were either placed onto NGM plates seeded with 5× concentrated E. coli OP50-1 (cultured on Lysogeny Broth/LB overnight) or on RNAi plates supplemented with 20×HT1115 RNAi bacteria. Post-L4 stage of development, all lifespan assays were performed using FUdR (5-fluoro-2 deoxyuridine) plates to inhibit development and growth of progeny. Every two days, animals were transferred on to new 60 mm NGM or RNAi plates freshly seeded with OP50-1 or HT1115 bacteria (with or without drug), respectively. 90-120 animals were considered for each lifespan experiment. Animal viability was assessed visually or with gentle prodding on the head. Animals were censored in the event of internal hatching of the larvae, body rupture, or crawling of larvae from the plates.

C. elegans [2] = assay: Touch assay (touch index, gentle touch); conditions: glod-4, young adult stage; 66.7 pM in DMSO
Description: For feeding RNAi bacteria, synchronized L1 larvae were transferred to NGM plates containing 1 mM of isopropyl P-D-1- thiogalactopyranoside/IPTG (referred to as RNAi plates) seeded with 20× concentrated HT1115 bacteria (cultured overnight at 20° C. at 220 rpm), carrying desired plasmid for RNAi of a specific gene or bacteria carrying empty vector pL4440 as control and allowed to grow on plates for 48 h. For drug assays, synchronized L4 larvae were transferred to either 60 mm NGM plates (with or without IPTG), freshly seeded with 5×E. coli OP50-1 or 20× HT1115 RNAi bacteria. Before seeding, the desired drug (or vehicle control) was mixed with the bacteria. Final drug concentrations were calculated considering the total volume of media and bacteria seeded on the NGM plates.
Briefly, each animal was touched alternately in the head region and in the tail with an eyelash. Typically, an omega turn or diversion in head direction resulting from anterior touch was counted as a positive response. Posterior touch response (not counted towards positive response) functioned towards resetting of the response to anterior touch. Touch index (TI) scores were generated by dividing the total number of positive responses over the […] per animal.
Synchronized glod-4 L1 animals were cultured on NGM agar plates seeded with E. coli OP50-1 until L4. […] Post-transfer into wells, animals were fed OP50-1 bacteria ad libitum while incubating at 20° C. on a rocker for 12 h. DMSO was used as control. Post-incubation with drug or DMSO, animals were transferred from wells onto NGM agar plates seeded with OP50-1 bacteria. Touch assay was performed on individual animal and touch index (TI) was calculated for each compound from the library as mentioned earlier.

glod-4 animals = assay: LC-MS/MS estimation of a-DC levels (MGO, GO) in worms; format: in vivo, Caenorhabditis elegans; conditions: glod-4, PA
Description: Worms were cultured on NGM agar plates as explained before for lifespan experiments with some modifications: ˜100 animals/60 mm plates were used for each experimental replicate and animals were harvested at day 4 of adulthood with 20 pL M9 buffer in 1.5 mL eppendorf tubes. Worm suspensions were flash-frozen over liquid nitrogen and subsequently homogenized ultrasonically using a Fisher Scientific's 550 Sonic Dismembrator with 80 pL of sodium formate buffer (pH=3) containing 75 pM of 2,3-hexanedione (internal standard, IS). Two 20 s pulses at amplitude setting 4 of the instrument (on ice) were sufficient to completely homogenize worm bodies. To each homogenate tube 20 pL of 100 mg/mL o-phenelynediamine (OPD) solution in sodium formate buffer (pH=3) were added, and the mixture was allowed to react in dark at room temperature for ˜22 h. The long reaction time and the pH are critical parameters in this protocol: first to ensure complete derivatization of a-DCs bound reversibly to protein/glutathione —SHs; and second to prevent in vitro a-DC generation from glycolytic intermediates (DHAP, GAP, etc.) or due to DNA breakdown (Chaplen et al. (1998) Proc. Natl. Acad. Sci. USA, 95: 5533-5538). At the end of the stipulated reaction window, 12 pL of 5 M perchloric acid was added to each tube and incubated on ice for 30 min to ensure complete protein precipitation. Subsequently, the tubes were centrifuged at 10,000 rpm for 10 min, and the supernatant collected and neutralized with 30 pL 4 M NH4OH solution.
Optimization of analyte-specific MRM transitions, such as determination of suitable precursor and product ions and optimal MS parameters for each transition (Q1, precursor→Q3, product) were achieved by isocratic flow injection of the 10 pM solution (final) for each standard- or IS-OPD derivatives. The most intense (Q1→Q3) transition was used as quantifier, whereas the next best transition was used as qualifier for each compound (Table 4). For LC separation, a solvent gradient of 0.1% acetic acid in water (aqueous) - methanol (organic) was used with 0.4 mL/min flow rate, starting with an […] content of 3% for 0.7 min, which was increased to 100% over 6 min and held at 100% for 1.5 min. The LC column was subsequently reconstituted to its initial condition (methanol content of 3%) over the next 0.5 min and re-equilibrated for 3 min.
Derivatized metabolome extracts, as well as synthetic a-DCs were analyzed by scheduled LC-MRM in positive ion mode. To develop the scheduled LC-MRM method, MS/MS data was collected for all transitions across the length of each LC run for a mixture of synthetic GO-, MGO-, 3DG-, and 2,3-hexanedione (IS)-OPD derivatives (1 pL injection of 1 pM final concentration). Source conditions were as follows: curtain gas (CUR) 20, nebulizer gas (GS1) 60, auxiliary gas (GS2) 50, ionspray voltage (IS) 4500 V, and source temperature (TEM) 450° C. This step was undertaken to ascertain the LC retention times (RT) for the OPD derivatives. Several such sets were acquired to compute analyte-specific variability in RTs. Next, the MS was switched to operate in scheduled MRM mode, whereby the mass spectrometer acquired data for specific MRM transitions ±45 s around the computed RT for the analyte (Table 4). Relative quantification of GO, MGO, and 3DG were based on integration of corresponding OPD derivative-specific quantifier peaks obtained from scheduled LC-MRM runs (peak areas) and adjusted to the number of animals. To account for OPD derivatization efficiencies in individual tubes, sample-to-sample variability in MS response, and differential sample dilutions (both for synthetic a-DCs as well as a-DCs in worm homogenates), the peak areas were normalized to the quantifier peak area for IS-OPD for each sample.

SKN-1/Nrf2 = assay: SKN-1 activation assay (GFP reporters for SKN-1, gst-4, gcs-1; qPCR); format: in vivo, Caenorhabditis elegans; conditions: gst-4p::gfp animals on EV or glod-4 RNAi; PA, LA, or UMP (20 pM)
Description: Adult animals were examined for SKN-1/Nrf2 activation using GFP reporters for both SKN-1 and SKN-1 target genes: gst-4 and gcs-1. For exogenous MGO and drug assays, age-synchronized GFP reporter strains were subject to control and treatment conditions for a period of 4-6 hours before microscopy. For RNAi-induced activation studies, GFP reporter strains were fed on HT1115 bacteria expressing empty vector pL4440 or RNAi gene from L1 stage. Synchronized day 1 adult animals were then subjected to microscopic examination. Activation of SKN-1 using SKN-1 fusion reporter was determined as described earlier (An et al. (2003) Genes & Dev. 17: 1882-1893; Onken and Driscoll (2010) PloS One, 5: e8758). Scoring for downstream SKN-1 targets carrying GFP reporter for gcs-1 promoter was performed based on a previous study (Wang et al. (2010) PLoS Genetics, doi. org/10.1371/journal.pgen.1001048) and categorized as follows: ‘high’ for strong GFP signal throughout the intestine, ‘medium’ for GFP signal in the anterior or posterior section of the intestine and ‘low’ for weak or no signal. For animals with gst-4 promoters carrying GFP reporters number of GST-4 positive foci was counted under different conditions as described previously (Fensgardet al. (2010) Aging, 2: 133-159). Quantification of acquired images was done using the Image J™ software (//imagej.nih.gov/ij/).
Total RNA was extracted from nearly 100 age-synchronized adult animals picked and collected in 20 pl of M9 buffer using TRIzol reagent (Life Technologies, CA). Subsequently, 1 pg total RNA was used as template for cDNA synthesis. cDNA was synthesized using the ISCRIPT™ cDNA synthesis kit (Bio-Rad, CA) following manufacturer's protocol. qRT-PCR was carried out using the SensiFAST SYBR No-ROX kit (Bioline, MA) in a LightCycler 480 Real-Time PCR system (Roche Diagnostics Corp., IN). Quantification was performed using the comparative AACt method and normalization for internal reference was done using actin gene act-1.

native HEK293T cells = assay: Calcium imaging of native HEK293T cells (GFP only); format: cell-based
Description: as §1

TRPM8 (mouse) = biological target: T3, TRPM8 (mouse) (Mus musculus, UniProt Q8R4D5); assay: Calcium imaging of HEK293T cells (Rhod-3 AM), mouse TRPM8; format: cell-based; conditions: HEK293T transfected with mouse TRPM8 and GFP; 100 pM MGO then 100 pM menthol
T3 construct: expressed in transfected cells; host or cells: HEK293T
Description: as §1

T3 sequence (Q8R4D5 whole entry): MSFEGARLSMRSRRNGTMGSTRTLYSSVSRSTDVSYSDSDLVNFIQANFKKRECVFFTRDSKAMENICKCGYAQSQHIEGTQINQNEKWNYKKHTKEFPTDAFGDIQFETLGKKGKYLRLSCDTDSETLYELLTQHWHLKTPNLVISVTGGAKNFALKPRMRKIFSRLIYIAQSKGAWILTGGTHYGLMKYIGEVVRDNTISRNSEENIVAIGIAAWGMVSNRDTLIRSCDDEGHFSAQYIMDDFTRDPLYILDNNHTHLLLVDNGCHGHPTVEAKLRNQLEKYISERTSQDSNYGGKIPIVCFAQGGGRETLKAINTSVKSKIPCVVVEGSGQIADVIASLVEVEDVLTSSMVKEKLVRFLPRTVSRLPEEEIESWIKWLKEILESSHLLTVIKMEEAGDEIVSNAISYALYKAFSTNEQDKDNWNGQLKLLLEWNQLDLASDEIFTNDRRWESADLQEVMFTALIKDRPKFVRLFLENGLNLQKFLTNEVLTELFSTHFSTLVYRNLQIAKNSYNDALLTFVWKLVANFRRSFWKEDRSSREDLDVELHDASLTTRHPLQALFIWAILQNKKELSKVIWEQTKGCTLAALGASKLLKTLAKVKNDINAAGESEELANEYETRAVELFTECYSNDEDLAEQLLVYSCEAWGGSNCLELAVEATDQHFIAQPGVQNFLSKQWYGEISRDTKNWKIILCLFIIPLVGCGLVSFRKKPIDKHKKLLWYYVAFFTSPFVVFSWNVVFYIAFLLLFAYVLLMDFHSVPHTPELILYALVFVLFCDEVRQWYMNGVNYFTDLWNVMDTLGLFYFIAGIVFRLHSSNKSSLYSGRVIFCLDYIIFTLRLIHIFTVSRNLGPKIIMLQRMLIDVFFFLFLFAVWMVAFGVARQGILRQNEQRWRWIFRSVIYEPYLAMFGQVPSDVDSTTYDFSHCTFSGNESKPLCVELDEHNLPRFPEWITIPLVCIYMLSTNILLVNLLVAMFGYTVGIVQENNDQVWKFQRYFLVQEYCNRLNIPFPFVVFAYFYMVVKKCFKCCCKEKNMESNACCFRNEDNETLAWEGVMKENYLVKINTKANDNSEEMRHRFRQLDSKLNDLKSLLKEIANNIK
T2 sequence (Q6RI86 whole entry): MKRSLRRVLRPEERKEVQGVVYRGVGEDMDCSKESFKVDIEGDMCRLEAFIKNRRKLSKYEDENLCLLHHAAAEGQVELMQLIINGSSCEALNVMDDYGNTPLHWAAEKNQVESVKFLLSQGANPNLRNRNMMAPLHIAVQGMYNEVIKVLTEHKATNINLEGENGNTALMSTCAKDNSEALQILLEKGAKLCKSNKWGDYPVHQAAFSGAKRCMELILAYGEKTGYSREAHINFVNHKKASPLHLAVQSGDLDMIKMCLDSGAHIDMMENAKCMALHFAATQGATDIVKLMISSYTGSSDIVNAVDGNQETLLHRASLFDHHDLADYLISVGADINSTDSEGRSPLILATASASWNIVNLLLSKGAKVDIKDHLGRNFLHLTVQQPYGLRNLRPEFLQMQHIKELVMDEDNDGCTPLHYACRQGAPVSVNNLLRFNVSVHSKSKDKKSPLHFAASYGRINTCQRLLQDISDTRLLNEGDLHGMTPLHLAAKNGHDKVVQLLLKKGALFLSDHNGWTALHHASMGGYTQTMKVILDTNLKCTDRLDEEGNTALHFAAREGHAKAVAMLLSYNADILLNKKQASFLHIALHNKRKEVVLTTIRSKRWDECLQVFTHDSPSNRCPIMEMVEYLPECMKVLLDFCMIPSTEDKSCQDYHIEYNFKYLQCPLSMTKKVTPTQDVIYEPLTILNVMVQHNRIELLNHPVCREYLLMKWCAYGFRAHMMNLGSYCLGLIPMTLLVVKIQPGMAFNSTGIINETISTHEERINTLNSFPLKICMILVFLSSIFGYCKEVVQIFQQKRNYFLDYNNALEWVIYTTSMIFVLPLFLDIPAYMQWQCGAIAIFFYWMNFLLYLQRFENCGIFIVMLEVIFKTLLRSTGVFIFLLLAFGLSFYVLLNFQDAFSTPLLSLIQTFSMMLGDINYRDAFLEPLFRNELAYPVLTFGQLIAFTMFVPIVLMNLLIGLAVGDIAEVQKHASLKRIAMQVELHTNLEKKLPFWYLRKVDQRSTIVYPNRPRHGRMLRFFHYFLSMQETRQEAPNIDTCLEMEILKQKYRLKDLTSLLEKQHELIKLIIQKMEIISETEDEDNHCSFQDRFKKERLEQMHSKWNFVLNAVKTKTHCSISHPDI

C=CCN=C=S [AITC, allyl isothiocyanate]
Activation of worm TRPA1 channel (Ca2+ flux, Rhod-3 AM) (TRPA1 (worm)): failed to activate | Activation of mammalian TRPA1 (TRPA1 (RAT)): known to activate

O=c1ccn([C@@H]2O[C@H](COP(=O)(O)O)[C@@H](O)[C@H]2O)c(=O)[nH]1 [UMP, Uridine monophosphate]
Lifespan / early mortality (survival curves) (C. elegans [1]): does not ameliorate | Touch sensitivity (touch index) in drug screen of TimTec NPL640 (C. elegans [2]): reduced touch sensitivity | Levels of GO (glod-4 animals; LA, or UMP (20 pM each) vs EtOH control): does not ameliorate | Levels of MGO (glod-4 animals; LA, or UMP (20 pM) vs EtOH control): does not ameliorate | SKN-1 activation (GFP foci in gst-4p::gfp) (SKN-1/Nrf2): nor does it activate SKN-1

CC1CCC(C(C)C)C(O)C1 (stereo not drawn) [menthol]
Ca2+ flux in native HEK293T cells (Rhod-3 AM) (native HEK293T cells): neither compounds resulted in Ca^+2 flux | Ca2+ flux through the TRPM8 channel (Rhod-3 AM) (TRPM8 (mouse)): triggers a Ca^+2 flux
